Values after ≈ are worked out from the molar mass of the structure shown. Where a name gives a salt, the structure may show the parent alone. Read-outs that look alike come from different tables or passages of the source.
Assays:
ABTS radical method = details: individual compounds; maximum assay concentration 100 mM
Method: (§1) Five antioxidant methods were performed with SlEOs and their main individual compounds in triplicate. In the oxygen radical absorbance capacity (ORAC) assay, peroxyl radicals are produced by 2,2′-Azobis(2-methylpropionamidine) dihydrochloride (AAPH), which reacts with fluorescein giving a non-fluorescent compound [61]. The antioxidants are able to scavenge these peroxyl radicals. Trolox was used as the reference antioxidant. The 2,2-diphenyl-1-picrylhydrazyl (DPPH) and 2,2′-azino-bis(3-ethylbenzothiazoline-6-sulphonic acid) (ABTS) methods measure the bleaching produced by the reduction of the coloured DPPH and ABTS radicals. Trolox was used as the reference antioxidant. The RdP method measure the ability to reduce ferric ions, according to the method of Oyaizu. Ascorbic acid was the reference antioxidant used in this method. The ChP method measured the ability to chelate Fe^2+ ion, following the method of Miguel et al.. EDTA was used as reference antioxidant. The SlEOs were diluted in 100% ethanol in the DPPH, ABTS, RdP and ChP methods, whereas in the ORAC method, SlEOs were diluted in 15% ethanol to obtain a final concentration of 5% ethanol in the reaction medium. All measurements were made at the end-point of the reaction, except in the ORAC method (Figure S5).

DPPH radical method = details: individual compounds; maximum assay concentration 100 mM
Method: as §1

[1] = Reducing power (RdP) method; details: individual compounds; maximum assay concentration 100 mM
Method: as §1

[2] = tested on: Candida albicans ATCC 10231; assay: Broth microdilution MIC and MFC; type: cell-based
Method: (§2) The following test microorganisms used in this work were acquired from Sigma-Aldrich: Pseudomonas aeruginosa ATCC 9027, Escherichia coli ATCC 8739, Staphylococcus aureus ATCC 6538, and Candida albicans ATCC 10231. The stock cultures were preserved in TSB or YPD with 15% glycerol, for bacteria and yeast cells, respectively, at −80 °C. Isolated colonies from an 18- to 24-h agar plate were transferred to MHB for bacteria and RPMI-1640 for C. albicans.
(§3) MIC were determined using the broth microdilution method in 96-well microplates, according to the M07-A10 [69] standard for bacteria and the M27-A3 [70] for Candida. Briefly, two-fold dilutions of a 40 µL/mL SlEOs were prepared to obtain a final concentration range of 0.08–20 µL/mL with 0.5% Tween®80 and 2.5% DMSO. The antimicrobial activities of main compounds were also tested in the concentration range of 0.12–15 mM with 0.5% Tween®80 and 2.5% DMSO as solvent. The final strain concentration was 5 × 10^5 CFU/mL in MHB for the bacteria and 0.5−2.5 × 10^3 in RPMI-1640 for the yeast. These plates were incubated for 24 h for bacteria and 48 h for Candida, both at 35 ± 1 °C, under aerobic conditions on a plate shaker at 100 rpm. Streptomycin (0.06–8.00 µg/mL) and fluconazole (0.13–16 µg/mL) were used as reference antibacterial and antifungal compound, respectively. […] MIC is defined as the lowest concentration of EO or individual compound with no visible growth of microorganisms, at the end of the incubation period. […] All determinations were carried out in triplicate.

[3] = tested on: Staphylococcus aureus ATCC 6538; assay: Broth microdilution MIC and MBC; type: cell-based
Method: as §2, §3

[4] = tested on: Escherichia coli ATCC 8739; assay: Broth microdilution MIC and MBC; type: cell-based
Method: as §2, §3

[5] = Oxygen radical absorbance capacity (ORAC) assay; details: individual compounds; maximum assay concentration 100 mM
Method: as §1

[6] = Chelating power (ChP) method; details: individual compounds; maximum assay concentration 100 mM
Method: as §1

LOX = target: T1, LOX (Glycine max, UniProt P08170); assay: LOX inhibition assay; type: biochemical, Glycine max (soybean)
T1 construct: purchased Sigma-Aldrich
Method: A LOX preparation from Glycine max (soybean) was acquired from Sigma-Aldrich. LOX inhibitory activity was determined as previously reported, based on the absorption at 234 nm of the hydroperoxyde conjugated dienes (ε = 25,000 M^−1 cm^−1), which are generated from the oxidation of linoleic acid in the presence of oxygen and LOX. This assay was carried out on a double beam Lambda 35 spectrophotometer (PerkinElmer, Madrid, Spain) with the UV-Winlab software, at 25 °C.
The DI in both antienzymatic assays were calculated using Equation (1):(1) DI (%)= ν0−νi/ν0 × 100 where v0 and v1 are the steady state rates without and with inhibitor, respectively. The inhibitions of LOX were reported as DI at 150 µg/mL of each SlEO. […] To calculate the IC50 values, data of DI (%) of seven different concentrations of each SlEO were plotted and fitted by non-linear regression according to Equation (2) using Sigma Plot software (systatsoftware.com) (Figure S6). The inhibitions of LOX and AChE by individual compounds were reported as IC50 or DI, depending on their inhibition capacities and solubilities.
(2) DI (%)= DImax [I]0/IC50+ [I]0

T1 sequence (P08170 whole entry): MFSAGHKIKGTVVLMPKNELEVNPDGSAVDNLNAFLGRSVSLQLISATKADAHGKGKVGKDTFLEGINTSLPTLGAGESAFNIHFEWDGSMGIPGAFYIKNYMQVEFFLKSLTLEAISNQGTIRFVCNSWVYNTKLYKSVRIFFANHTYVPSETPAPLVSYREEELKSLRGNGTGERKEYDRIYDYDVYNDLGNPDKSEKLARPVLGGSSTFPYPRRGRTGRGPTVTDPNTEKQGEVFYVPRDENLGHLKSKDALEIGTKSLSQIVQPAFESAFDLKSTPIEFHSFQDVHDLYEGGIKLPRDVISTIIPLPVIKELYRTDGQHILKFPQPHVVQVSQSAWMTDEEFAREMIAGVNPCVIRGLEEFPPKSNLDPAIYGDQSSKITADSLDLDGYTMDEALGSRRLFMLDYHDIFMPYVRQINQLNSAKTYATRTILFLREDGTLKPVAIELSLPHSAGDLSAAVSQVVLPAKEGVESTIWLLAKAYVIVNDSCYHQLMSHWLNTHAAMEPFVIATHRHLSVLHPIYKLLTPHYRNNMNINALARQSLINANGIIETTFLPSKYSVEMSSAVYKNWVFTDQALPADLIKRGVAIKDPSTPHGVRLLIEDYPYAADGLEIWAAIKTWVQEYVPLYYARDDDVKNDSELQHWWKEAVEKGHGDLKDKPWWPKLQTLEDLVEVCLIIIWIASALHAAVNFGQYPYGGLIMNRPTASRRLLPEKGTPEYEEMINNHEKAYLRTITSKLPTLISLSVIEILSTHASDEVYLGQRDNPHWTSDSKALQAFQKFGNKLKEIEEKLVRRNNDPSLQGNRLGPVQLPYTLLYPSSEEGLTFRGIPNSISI

Row | Compound | ABTS (ABTS radical method) | DPPH (DPPH radical method) | RdP [1] | MIC ([2]; ATCC10231, 48 h, read-out: MIC) [µg/mL] | MFC ([2]; ATCC10231, read-out: MFC) [µg/mL] | MIC ([3]; ATCC6538, 24 h, read-out: MIC) [µg/mL] | MBC ([3]; ATCC6538, read-out: MBC) [µg/mL] | MIC ([4]; ATCC8739, 24 h, read-out: MIC) [µg/mL] | MBC ([4]; ATCC8739, read-out: MBC) [µg/mL] | ORAC [5] | ChP [6] | other results
1 | CC1(C)C2CCC1(C)C(O)C2 (stereo not drawn) [Borneol] | N/D (Activity lower than 0.05 units at a maximum assay concentration of 100 mM) | N/D (Activity lower than 0.05 units at a maximum assay concentration of 100 mM) | N/D (Activity lower than 0.05 units at a maximum assay concentration of 100 mM) | 600 (≈ 3.89 mM) | 600 (≈ 3.89 mM) | 300 (≈ 1.94 mM) | 300 (≈ 1.94 mM) | 1100 (≈ 7.13 mM) | 1100 (≈ 7.13 mM) | N/D (Activity lower than 0.05 units at a maximum assay concentration of 100 mM) | N/D (Activity lower than 0.05 units at a maximum assay concentration of 100 mM) | 
2 | CC(=O)OC1CC2CCC1(C)C2(C)C (stereo not drawn) [Bornyl acetate] | N/D (Activity lower than 0.05 units at a maximum assay concentration of 100 mM) | N/D (Activity lower than 0.05 units at a maximum assay concentration of 100 mM) | N/D (Activity lower than 0.05 units at a maximum assay concentration of 100 mM) | > 2900 | > 2900 | 2900 | > 2900 | > 2900 | > 2900 | N/D (Activity lower than 0.05 units at a maximum assay concentration of 100 mM) | N/D (Activity lower than 0.05 units at a maximum assay concentration of 100 mM) | IC50 (LOX): 380 µM
3 | OC(Cn1cncn1)(Cn1cncn1)c1ccc(F)cc1F [Fluconazole, reference compound] |  |  |  | 4 (≈ 0.0131 mM) | 4 (≈ 0.0131 mM) |  |  |  |  |  |  | 
4 | C=CC(C)(CCC=C(C)C)OC(C)=O (stereo not drawn) [Linalyl acetate] | 0.1 ± 0.0 µmol TE/mmol X | N/D (Activity lower than 0.05 units at a maximum assay concentration of 100 mM) | N/D (Activity lower than 0.05 units at a maximum assay concentration of 100 mM) |  |  |  |  |  |  | 207.1 ± 13.2 µmol TE/mmol X | 27.4 ± 2.1 µmol EDTAE/mmol X | MFC ([2]; ATCC10231): > 3000 µg/mL; MIC ([2]; ATCC10231, 48 h): > 3000 µg/mL; MBC ([3]; ATCC6538): > 3000 µg/mL; MIC ([3]; ATCC6538, 24 h): 3000 µg/mL; MBC ([4]; ATCC8739): > 3000 µg/mL; MIC ([4]; ATCC8739, 24 h): > 3000 µg/mL
5 | C=CC(=C)CCC=C(C)C [Myrcene] | N/D (Activity lower than 0.05 units at a maximum assay concentration of 100 mM) | N/D (Activity lower than 0.05 units at a maximum assay concentration of 100 mM) | N/D (Activity lower than 0.05 units at a maximum assay concentration of 100 mM) | > 2100 | > 2100 | > 2100 | > 2100 | > 2100 | > 2100 | N/D (Activity lower than 0.05 units at a maximum assay concentration of 100 mM) | 2.5 ± 0.2 µmol EDTAE/mmol X | 
6 | CC(C)C12CCC(C)(O)C1C2 (stereo not drawn) [Sabinene hydrate] | 0.5 ± 0.0 µmol TE/mmol X | N/D (Activity lower than 0.05 units at a maximum assay concentration of 100 mM) | N/D (Activity lower than 0.05 units at a maximum assay concentration of 100 mM) |  |  |  |  |  |  | N/D (Activity lower than 0.05 units at a maximum assay concentration of 100 mM) | 6.7 ± 0.6 µmol EDTAE/mmol X | 
7 | C=C1CCC2(C(C)C)CC12 (stereo not drawn) [Sabinene] |  |  |  | > 2000 | > 2000 | > 2000 | > 2000 | > 2000 | > 2000 |  |  | 
8 | [H]/N=C(/N)N[C@H]1[C@H](O)[C@@H](O)[C@H](O[C@@H]2O[C@@H](C)[C@](O)(C=O)[C@H]2O[C@@H]2O[C@@H](CO)[C@H](O)[C@@H](O)[C@@H]2NC)[C@@H](N/C(N)=N\[H])[C@@H]1O [Streptomycin sulfate, reference compound] |  |  |  |  |  | 1 | 1 | 1 | 1 |  |  | 
9 | Cc1ccc(C(C)C)cc1 [p-Cymene] | 0.1 ± 0.0 µmol TE/mmol X | N/D (Activity lower than 0.05 units at a maximum assay concentration of 100 mM) | N/D (Activity lower than 0.05 units at a maximum assay concentration of 100 mM) | 500 (≈ 3.73 mM) | 500 (≈ 3.73 mM) | > 2000 | > 2000 | 1000 (≈ 7.45 mM) | 2000 (≈ 14.9 mM) | N/D (Activity lower than 0.05 units at a maximum assay concentration of 100 mM) | 20.1 ± 1.6 µmol EDTAE/mmol X | 
10 | C/C1=C\CC/C(C)=C/CC(C)(C)/C=C/C1 [α-Humulene] |  |  |  |  |  |  |  |  |  |  |  | MFC [2]: >3000 µg/mL; MIC ([2]; 48 h): >3000 µg/mL; MBC [3]: 3000 µg/mL (≈ 14.7 mM); MIC ([3]; 24 h): 1600 µg/mL (≈ 7.83 mM); MBC [4]: >3000 µg/mL; MIC ([4]; 24 h): >3000 µg/mL
11 | CC1=CC=C(C(C)C)CC1 [α-Terpinene] | 4.0 ± 0.2 µmol TE/mmol X | 0.3 ± 0.0 µmol TE/mmol X | 1.9 ± 0.1 µmol AAE/mmol X |  |  |  |  |  |  | N/D (Activity lower than 0.05 units at a maximum assay concentration of 100 mM) | 62.2 ± 4.7 µmol EDTAE/mmol X | 
12 | C=C1CC/C=C(\C)CC[C@@H]2[C@@H]1CC2(C)C [β-Caryophyllene, (E)-β-Caryophyllene] | N/D (Activity lower than 0.05 units at a maximum assay concentration of 100 mM) | N/D (Activity lower than 0.05 units at a maximum assay concentration of 100 mM) | N/D (Activity lower than 0.05 units at a maximum assay concentration of 100 mM) | > 3100 | > 3100 | > 3100 | > 3100 | > 3100 | > 3100 | 394.7 ± 14.5 µmol TE/mmol X | 7.1 ± 0.5 µmol EDTAE/mmol X | 
13 | C=C1CCC2CC1C2(C)C (stereo not drawn) [β-Pinene] | 0.1 ± 0.0 µmol TE/mmol X | N/D (Activity lower than 0.05 units at a maximum assay concentration of 100 mM) | N/D (Activity lower than 0.05 units at a maximum assay concentration of 100 mM) | > 2000 | > 2000 | > 2000 | > 2000 | > 2000 | > 2000 | 26.6 ± 1.6 µmol TE/mmol X | 1.8 ± 0.1 µmol EDTAE/mmol X | 
14 | CC1=CCC(C(C)C)=CC1 [γ-Terpinene] | 2.5 ± 0.1 µmol TE/mmol X | 0.3 ± 0.0 µmol TE/mmol X | 0.3 ± 0.0 µmol AAE/mmol X |  |  |  |  |  |  | 171.4 ± 10.3 µmol TE/mmol X | 0.3 ± 0.0 µmol EDTAE/mmol X | 

Source: publication PMC6152226, “Composition and Antioxidant, Antienzymatic and Antimicrobial Activities of Volatile Molecules from Spanish Salvia lavandulifolia (Vahl) Essential Oils” (Molecules : A Journal of Synthetic Chemistry and Natural …, 2017)
